From the supplement of paper PMC10307832

What was measured:
Test in all cases: relative viability (nuclei count vs DMSO), 5 days (fraction); higher = more cells survive
Axitinib + Tozasertib = compound: CNC(=O)c1ccccc1Sc1ccc2c(/C=C/c3ccccn3)n[nH]c2c1 [Axitinib] + Cc1cc(Nc2cc(N3CCN(C)CC3)nc(Sc3ccc(NC(=O)C4CC4)cc3)n2)n[nH]1 [Tozasertib] (partner 0.1 µM)
In short: (§1)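 For relative viability, nuclei counts in treated wells were divided by those in vehicle wells. Lung cancer cell lines had been pin-tool dosed in 1536-well plates the day after seeding and cultured for 5 days, then fixed and stained in one step (final 0.05% Triton X-100, 1% formaldehyde, 1 ug/ml Hoechst) and imaged at 4×. Doses were one drug alone or a fixed anchor-drug dose plus five library-drug doses (not always all listed) in √10 steps, and values are duplicate-plate medians.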

Bemcentinib + Decitabine = compound: Nc1nc(Nc2ccc3c(c2)CC[C@@H](N2CCCC2)CC3)nn1-c1cc2c(nn1)-c1ccccc1CCC2 [Bemcentinib] + Nc1ncn([C@H]2C[C@H](O)[C@@H](CO)O2)c(=O)n1 [Decitabine] (partner 2 µM)
In short: as §1

Bemcentinib + Alpelisib = compound: Nc1nc(Nc2ccc3c(c2)CC[C@@H](N2CCCC2)CC3)nn1-c1cc2c(nn1)-c1ccccc1CCC2 [Bemcentinib] + Cc1nc(NC(=O)N2CCC[C@H]2C(N)=O)sc1-c1ccnc(C(C)(C)C(F)(F)F)c1 [Alpelisib] (partner 2 µM)
In short: as §1

[1] = compound: Nc1nc(Nc2ccc3c(c2)CC[C@@H](N2CCCC2)CC3)nn1-c1cc2c(nn1)-c1ccccc1CCC2 [Bemcentinib] + CC(=O)c1c(C)c2cnc(Nc3ccc(N4CCNCC4)cn3)nc2n(C2CCCC2)c1=O [Palbociclib] (partner 0.5 µM)
In short: as §1

Cell Line | relative viability (Axitinib + Tozasertib; first compound 0.005 µM) | relative viability (Axitinib + Tozasertib; first compound 0.01581 µM) | relative viability (Axitinib + Tozasertib; first compound 0.05 µM) | relative viability (Axitinib + Tozasertib; first compound 0.1581 µM) | relative viability (Axitinib + Tozasertib; first compound 0.5 µM) | relative viability (Bemcentinib + Decitabine; first compound 0.04 µM) | relative viability (Bemcentinib + Decitabine; first compound 0.1265 µM) | relative viability (Bemcentinib + Decitabine; first compound 0.4 µM) | relative viability (Bemcentinib + Decitabine; first compound 1.265 µM) | relative viability (Bemcentinib + Decitabine; first compound 4 µM) | relative viability (Bemcentinib + Alpelisib; first compound 0.04 µM) | relative viability (Bemcentinib + Alpelisib; first compound 0.1265 µM) | relative viability (Bemcentinib + Alpelisib; first compound 0.4 µM) | relative viability (Bemcentinib + Alpelisib; first compound 1.265 µM) | relative viability (Bemcentinib + Alpelisib; first compound 4 µM) | relative viability ([1]; first compound 0.04 µM) | relative viability ([1]; first compound 0.1265 µM) | relative viability ([1]; first compound 0.4 µM) | relative viability ([1]; first compound 1.265 µM) | relative viability ([1]; first compound 4 µM)
NCI-H2009 | 0.76 | 0.815 | 0.708 | 0.786 | 1.08 | 0.404 | 0.353 | 0.492 | 0.399 | 0.434 | 1.23 | 1.2 | 1.24 | 1.2 | 1.16 | 0.185 | 0.21 | 0.225 | 0.239 | 0.261
ChaGo-K-1 | 0.217 | 0.205 | 0.212 | 0.237 | 0.255 | 0.566 | 0.537 | 0.538 | 0.536 | 0.556 | – | – | – | – | – | 0.963 | 0.953 | 1.02 | 0.954 | 0.938
SW 900 | 0.84 | 0.572 | 0.571 | 0.639 | 0.642 | 0.406 | 0.479 | 0.432 | 0.428 | 0.398 | – | – | – | – | – | 0.58 | 0.594 | 0.518 | 0.538 | 0.591
NCI-H2342 | 0.618 | 0.685 | 0.448 | 0.593 | 0.528 | 0.746 | 0.768 | 0.771 | 0.73 | 0.827 | – | – | – | – | – | 0.605 | 0.614 | 0.562 | 0.575 | 0.529
NCI-H460 | 0.394 | 0.515 | 0.525 | 0.413 | 0.624 | 0.479 | 0.595 | 0.605 | 0.483 | 0.5 | 0.595 | 0.556 | 0.487 | 0.602 | 0.584 | 0.241 | 0.147 | 0.221 | 0.301 | 0.199
NCI-H322M | 0.453 | 0.435 | 0.432 | 0.437 | 0.527 | 0.686 | 0.731 | 0.716 | 0.841 | 0.704 | 0.897 | 0.864 | 0.855 | 0.85 | 0.937 | 0.49 | 0.481 | 0.483 | 0.537 | 0.557
HCC-827 | 0.443 | 0.417 | 0.424 | 0.466 | 0.449 | 0.34 | 0.347 | 0.316 | 0.292 | 0.332 | 0.999 | 1.02 | 0.909 | 0.957 | 0.982 | 0.529 | 0.537 | 0.461 | 0.526 | 0.471
